pEC50: −log10 of the molar value.
How the values were obtained:
Type in all cases: cell-based
[1] = target: mutant EGFR T790M/exon19del transformed Ba/F3 cells (Homo sapiens, UniProt P00533, T790M, cells depend on it, form not given); assay: Proliferation inhibition assay, EGFR T790M/exon19del transformed Ba/F3 cells
[2] = target: T1, wild-type EGFR transformed Ba/F3 cells (Homo sapiens, UniProt P00533); assay: Western blot, EGFR phosphorylation, wild-type EGFR Ba/F3 cells; conditions: indicated concentrations, 6 hours of treatment
T1 construct: expressed in transfected cells; host or cells: Ba/F3
Procedure: (§4) Cells are seeded and grow in culture plates, and then treated with representative compounds of the application the following day for various duration. Cells are washed with PBS and lysed.
(§5) Cells were plated at 5×10^5 cells per well in 6-well plates and treated with representative compounds of the application the following day. After 6 hours of treatment, cells were washed with PBS and lysed with NP40 buffer (Calbiochem®) supplemented with Complete™ Mini protease inhibitor and PhosSTOP™ phosphatase inhibitors (Rocheg).
(§6) Western blot analysis was then performed on the cells. The cells were plated at 5×10^5 cells per well in 6-well plates and treated with the indicated concentrations of the compound.
(§7) After 6 hours of treatment, cells were washed with PBS and lysed with NP40 buffer (Calbiochem) supplemented with Complete Mini protease inhibitor and PhosSTOP phosphatase inhibitors (Roche).

[3] = target: T2, EGFR InsNPG (D770_N771insNPG) transformed Ba/F3 cells (Homo sapiens, UniProt P00533, INS770NPG); assay: Proliferation inhibition assay, EGFR InsNPG transformed Ba/F3 cells; conditions: MTS assay, 72 hours
T2 construct: expressed in transfected cells; host or cells: Ba/F3
Procedure: (§1) Cell growth inhibition can be assessed by MTS assay or by Cell Titer Glo Luminescent Cell viability assay (Promega®). Cells are seeded and grow in culture plates before they are exposed to representative compounds of the application for various duration. The viability of the cells are then assessed. […] The growth curves can be fitted using a nonlinear regression model with sigmoidal dose response.
(§2) Cell growth inhibition was assessed by MTS assay for Ba/F3, DFCI58-229, and DFCI127c cells, or by Cell Titer Glo Luminescent Cell viability assay (Promega®) for DFC1362JC cells, 3000 Ba/F3 cells were seeded for per well in 96-well plates, and were exposed to representative compounds of the application (3.3 nM to 10 μM) for 72 hours. For DFCI58-229, DFCI127c, and DFC1362JC cells, 5000 cells were seeded per well. All experimental points included 6 to 12 wells. […] The growth curves were fitted using a nonlinear regression model with sigmoidal dose response.
(§3) Activities of representative compounds of the present application in inhibiting EGFR and HER2 were tested by MTS assay (for Ba/F3 cell, DFCI58-229 cell, and DFCI127c cells) or by CellTiter-Glot luminescent cell viability assay (for DFCI362JC cells). For assays with Ba/F3 cells, 3000 cells were seeded for per well in 96-well plates and were exposed to indicated compounds with a concentration of 3.3 to 10 μM for 72 hours. For assays with DFCI58-229 cell, DFCI127c cell, or DFCI362JC cell, 5000 cells were seeded per well in 96-well plates and were exposed to indicated compounds with a concentration of 3.3 to 10 μM for 72 hours.

[4] = target: T3, HER2 InsVC (G776delinsVC) transformed Ba/F3 cells (Homo sapiens, UniProt P04626, G776C/INS775V); assay: Proliferation inhibition assay, HER2 InsVC transformed Ba/F3 cells; conditions: MTS assay, 72 hours, Table 9 key
T3 construct: expressed in transfected cells; host or cells: Ba/F3
T3 sequence (P04626 with tags, fused parts or gaps INS775V/G776C): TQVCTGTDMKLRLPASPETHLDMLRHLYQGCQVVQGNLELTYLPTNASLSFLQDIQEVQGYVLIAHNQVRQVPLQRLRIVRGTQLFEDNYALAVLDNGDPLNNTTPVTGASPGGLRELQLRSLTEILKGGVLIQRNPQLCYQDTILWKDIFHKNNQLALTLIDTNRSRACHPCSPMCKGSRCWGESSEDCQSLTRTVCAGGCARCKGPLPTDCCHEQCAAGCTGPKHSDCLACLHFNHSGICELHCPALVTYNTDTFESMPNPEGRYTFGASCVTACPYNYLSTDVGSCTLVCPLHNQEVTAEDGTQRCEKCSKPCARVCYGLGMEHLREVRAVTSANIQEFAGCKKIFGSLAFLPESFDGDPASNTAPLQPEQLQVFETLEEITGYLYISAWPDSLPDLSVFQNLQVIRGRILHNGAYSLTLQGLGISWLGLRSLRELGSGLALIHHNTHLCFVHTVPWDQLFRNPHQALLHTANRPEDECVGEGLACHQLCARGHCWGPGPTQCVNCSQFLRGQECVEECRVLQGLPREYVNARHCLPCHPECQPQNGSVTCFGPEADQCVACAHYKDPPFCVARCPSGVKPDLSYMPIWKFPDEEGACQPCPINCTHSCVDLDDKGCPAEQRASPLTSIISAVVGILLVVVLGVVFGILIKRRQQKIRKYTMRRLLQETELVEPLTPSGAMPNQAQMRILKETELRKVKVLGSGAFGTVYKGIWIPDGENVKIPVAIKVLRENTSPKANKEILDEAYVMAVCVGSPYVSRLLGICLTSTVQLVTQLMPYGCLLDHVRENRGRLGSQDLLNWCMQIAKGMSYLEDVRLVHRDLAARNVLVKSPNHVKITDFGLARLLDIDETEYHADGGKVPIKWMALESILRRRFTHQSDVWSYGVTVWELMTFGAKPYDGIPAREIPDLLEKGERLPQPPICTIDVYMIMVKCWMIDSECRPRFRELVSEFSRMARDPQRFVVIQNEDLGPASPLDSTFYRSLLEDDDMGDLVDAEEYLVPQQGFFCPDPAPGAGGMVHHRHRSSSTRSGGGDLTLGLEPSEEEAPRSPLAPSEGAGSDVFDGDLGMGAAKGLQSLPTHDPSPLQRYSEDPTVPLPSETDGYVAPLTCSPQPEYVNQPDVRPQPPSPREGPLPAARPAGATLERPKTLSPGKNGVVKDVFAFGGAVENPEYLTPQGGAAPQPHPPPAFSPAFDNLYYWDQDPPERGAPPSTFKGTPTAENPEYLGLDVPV
Procedure: as §1, §2, §3

[5] = target: T4, HER2 InsYVMA (A775_G776insYVMA) transformed Ba/F3 cells (Homo sapiens, UniProt P04626, INS775YVMA); assay: Proliferation inhibition assay, HER2 InsYVMA transformed Ba/F3 cells; conditions: MTS assay, 72 hours, Table 9 key
T4 construct: expressed in transfected cells; host or cells: Ba/F3
T4 sequence (P04626 with tags, fused parts or gaps INS775YVMA): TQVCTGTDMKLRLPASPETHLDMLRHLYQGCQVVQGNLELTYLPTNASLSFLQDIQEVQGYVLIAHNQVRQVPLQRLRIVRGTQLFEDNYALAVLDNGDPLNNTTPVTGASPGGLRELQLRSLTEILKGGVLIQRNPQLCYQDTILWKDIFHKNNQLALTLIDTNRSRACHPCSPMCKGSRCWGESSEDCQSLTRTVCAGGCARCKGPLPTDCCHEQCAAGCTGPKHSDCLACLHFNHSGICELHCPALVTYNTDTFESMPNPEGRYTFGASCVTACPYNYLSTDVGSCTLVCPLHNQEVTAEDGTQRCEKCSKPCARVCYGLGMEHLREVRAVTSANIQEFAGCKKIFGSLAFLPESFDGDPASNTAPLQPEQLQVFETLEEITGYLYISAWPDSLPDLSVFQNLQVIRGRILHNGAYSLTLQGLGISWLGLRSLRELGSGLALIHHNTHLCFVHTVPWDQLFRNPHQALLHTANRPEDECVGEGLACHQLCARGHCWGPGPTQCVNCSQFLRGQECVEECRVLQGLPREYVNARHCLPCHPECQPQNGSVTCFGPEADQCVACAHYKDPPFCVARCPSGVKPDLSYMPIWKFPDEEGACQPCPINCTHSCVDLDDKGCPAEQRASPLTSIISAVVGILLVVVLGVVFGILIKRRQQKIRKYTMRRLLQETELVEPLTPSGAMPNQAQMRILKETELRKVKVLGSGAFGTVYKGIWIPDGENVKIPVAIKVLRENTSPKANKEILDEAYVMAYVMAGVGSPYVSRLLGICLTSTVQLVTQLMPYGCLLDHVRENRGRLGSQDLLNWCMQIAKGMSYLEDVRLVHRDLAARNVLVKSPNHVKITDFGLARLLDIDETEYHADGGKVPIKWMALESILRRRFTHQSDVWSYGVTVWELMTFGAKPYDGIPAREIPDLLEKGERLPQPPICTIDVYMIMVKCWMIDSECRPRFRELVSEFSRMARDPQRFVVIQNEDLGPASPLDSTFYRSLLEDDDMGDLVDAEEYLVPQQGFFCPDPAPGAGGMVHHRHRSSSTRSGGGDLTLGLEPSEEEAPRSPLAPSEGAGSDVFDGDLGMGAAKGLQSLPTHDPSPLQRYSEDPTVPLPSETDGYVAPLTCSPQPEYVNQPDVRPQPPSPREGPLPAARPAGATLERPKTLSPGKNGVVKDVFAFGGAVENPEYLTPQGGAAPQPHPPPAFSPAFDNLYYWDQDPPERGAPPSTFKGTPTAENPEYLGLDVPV
Procedure: as §1, §2, §3

[6] = target: T5, mutant EGFR L858R transformed Ba/F3 cells (Homo sapiens, UniProt P00533, L858R); assay: Proliferation inhibition assay, EGFR L858R transformed Ba/F3 cells
T5 construct: expressed in transfected cells; host or cells: Ba/F3

[7] = target: T6, EGFR InsH transformed Ba/F3 cells (Homo sapiens, UniProt P00533, DUP773-773); assay: Proliferation inhibition assay, EGFR InsH transformed Ba/F3 cells; conditions: MTS assay, 72 hours
T6 construct: expressed in transfected cells; host or cells: Ba/F3
Procedure: as §1, §2, §3

[8] = target: T7, wild-type HER2 transformed Ba/F3 cells (Homo sapiens, UniProt P04626); assay: Proliferation inhibition assay, wild-type HER2 transformed Ba/F3 cells; conditions: MTS assay, 72 hours, Table 9 key
T7 construct: expressed in transfected cells; host or cells: Ba/F3
T7 sequence (P04626 23-1255): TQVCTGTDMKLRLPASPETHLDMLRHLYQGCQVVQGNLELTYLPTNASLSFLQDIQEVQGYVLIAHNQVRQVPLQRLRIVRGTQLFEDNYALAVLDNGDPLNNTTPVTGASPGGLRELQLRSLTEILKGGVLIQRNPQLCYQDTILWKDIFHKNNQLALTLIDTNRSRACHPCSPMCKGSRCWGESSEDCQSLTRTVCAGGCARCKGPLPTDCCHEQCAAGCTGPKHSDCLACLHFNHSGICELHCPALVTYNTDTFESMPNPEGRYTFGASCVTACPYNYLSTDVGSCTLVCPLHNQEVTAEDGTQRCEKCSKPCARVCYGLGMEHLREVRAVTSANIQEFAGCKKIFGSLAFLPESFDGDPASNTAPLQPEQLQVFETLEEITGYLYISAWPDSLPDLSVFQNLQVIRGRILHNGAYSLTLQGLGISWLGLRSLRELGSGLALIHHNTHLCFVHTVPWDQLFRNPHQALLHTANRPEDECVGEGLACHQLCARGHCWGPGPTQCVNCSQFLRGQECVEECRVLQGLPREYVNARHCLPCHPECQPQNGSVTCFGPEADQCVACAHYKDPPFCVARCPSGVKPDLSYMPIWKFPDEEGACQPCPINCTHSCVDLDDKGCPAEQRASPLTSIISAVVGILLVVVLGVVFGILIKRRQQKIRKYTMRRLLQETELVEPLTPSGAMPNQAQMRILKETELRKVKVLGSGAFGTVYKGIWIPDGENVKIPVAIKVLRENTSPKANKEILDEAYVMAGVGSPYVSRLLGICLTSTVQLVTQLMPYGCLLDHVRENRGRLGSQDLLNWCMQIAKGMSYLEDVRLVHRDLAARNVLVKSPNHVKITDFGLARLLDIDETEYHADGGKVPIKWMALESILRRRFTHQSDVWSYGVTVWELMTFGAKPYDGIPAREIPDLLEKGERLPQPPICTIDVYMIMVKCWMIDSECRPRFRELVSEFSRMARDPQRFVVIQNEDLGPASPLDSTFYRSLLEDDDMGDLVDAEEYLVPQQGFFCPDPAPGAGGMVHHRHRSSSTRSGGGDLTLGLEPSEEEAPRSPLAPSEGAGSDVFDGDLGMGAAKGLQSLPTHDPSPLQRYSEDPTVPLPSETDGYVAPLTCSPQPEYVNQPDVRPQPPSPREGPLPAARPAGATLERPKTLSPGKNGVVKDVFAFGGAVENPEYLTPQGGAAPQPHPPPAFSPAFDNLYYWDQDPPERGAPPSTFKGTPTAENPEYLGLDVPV
Procedure: as §1, §2, §3

[9] = target: T8, EGFR InsGY transformed Ba/F3 cells (Homo sapiens, UniProt P00533, D770Y/INS769G); assay: Western blot, EGFR phosphorylation, EGFR InsGY Ba/F3 cells; conditions: indicated concentrations, 6 hours of treatment
T8 construct: expressed in transfected cells; host or cells: Ba/F3
Procedure: as §4, §5, §6, §7

[10] = target: T9, EGFR InsGY (D770delinsGY) transformed Ba/F3 cells (Homo sapiens, UniProt P00533, D770Y/INS769G); assay: Proliferation inhibition assay, EGFR InsGY transformed Ba/F3 cells; conditions: MTS assay, 72 hours
T9 construct: expressed in transfected cells; host or cells: Ba/F3
Procedure: as §1, §2, §3

[11] = target: T10, EGFR InsASV (V769_D770insASV) transformed Ba/F3 cells (Homo sapiens, UniProt P00533, INS769ASV); assay: Proliferation inhibition assay, EGFR InsASV transformed Ba/F3 cells; conditions: MTS assay, 72 hours
T10 construct: expressed in transfected cells; host or cells: Ba/F3
Procedure: as §1, §2, §3

[12] = target: T11, HER2 InsGSP (P780_Y781insGSP) transformed Ba/F3 cells (Homo sapiens, UniProt P04626, INS780GSP); assay: Proliferation inhibition assay, HER2 InsGSP transformed Ba/F3 cells; conditions: MTS assay, 72 hours, Table 9 key
T11 construct: expressed in transfected cells; host or cells: Ba/F3
T11 sequence (P04626 with tags, fused parts or gaps INS780GSP): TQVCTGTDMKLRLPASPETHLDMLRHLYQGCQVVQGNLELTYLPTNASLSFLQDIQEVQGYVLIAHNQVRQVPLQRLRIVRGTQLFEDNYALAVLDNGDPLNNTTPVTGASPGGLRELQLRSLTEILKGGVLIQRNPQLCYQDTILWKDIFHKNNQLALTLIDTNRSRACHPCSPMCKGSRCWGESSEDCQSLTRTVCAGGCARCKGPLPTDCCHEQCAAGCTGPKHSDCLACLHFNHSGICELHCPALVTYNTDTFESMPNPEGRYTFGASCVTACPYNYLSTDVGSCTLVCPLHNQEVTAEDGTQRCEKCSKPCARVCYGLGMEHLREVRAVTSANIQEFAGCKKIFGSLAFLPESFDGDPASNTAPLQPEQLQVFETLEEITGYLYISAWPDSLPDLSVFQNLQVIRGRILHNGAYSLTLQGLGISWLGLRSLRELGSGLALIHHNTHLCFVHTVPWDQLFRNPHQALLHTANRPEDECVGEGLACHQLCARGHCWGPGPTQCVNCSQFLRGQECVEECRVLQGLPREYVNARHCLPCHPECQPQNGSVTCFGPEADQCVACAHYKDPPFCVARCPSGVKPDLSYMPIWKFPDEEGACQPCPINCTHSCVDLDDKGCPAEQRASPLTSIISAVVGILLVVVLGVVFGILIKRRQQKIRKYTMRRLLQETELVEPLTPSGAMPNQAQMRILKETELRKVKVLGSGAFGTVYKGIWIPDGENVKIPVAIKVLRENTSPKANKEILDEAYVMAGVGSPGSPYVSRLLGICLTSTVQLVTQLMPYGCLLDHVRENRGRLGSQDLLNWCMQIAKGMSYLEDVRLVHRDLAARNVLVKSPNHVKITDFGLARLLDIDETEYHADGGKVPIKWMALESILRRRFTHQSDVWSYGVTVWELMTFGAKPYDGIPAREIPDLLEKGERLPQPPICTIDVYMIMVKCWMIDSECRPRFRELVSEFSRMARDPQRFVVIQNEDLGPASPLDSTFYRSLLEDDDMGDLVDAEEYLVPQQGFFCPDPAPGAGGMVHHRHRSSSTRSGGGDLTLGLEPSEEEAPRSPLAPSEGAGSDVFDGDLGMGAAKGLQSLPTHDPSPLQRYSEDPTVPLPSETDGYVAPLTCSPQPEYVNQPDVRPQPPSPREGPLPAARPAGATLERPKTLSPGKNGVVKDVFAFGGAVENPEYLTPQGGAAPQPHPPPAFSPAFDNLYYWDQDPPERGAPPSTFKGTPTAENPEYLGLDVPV
Procedure: as §1, §2, §3

[13] = target: T12, HER2 InsWLV transformed Ba/F3 cells (Homo sapiens, UniProt P04626, INS773WL/M774V); assay: Proliferation inhibition assay, HER2 InsWLV transformed Ba/F3 cells; conditions: MTS assay, 72 hours, Table 9 key
T12 construct: expressed in transfected cells; host or cells: Ba/F3
Procedure: as §1, §2, §3

[14] = target: T13, EGFR InsSVD (D770_N771insSVD) transformed Ba/F3 cells (Homo sapiens, UniProt P00533, INS770SVD); assay: Proliferation inhibition assay, EGFR InsSVD transformed Ba/F3 cells; conditions: MTS assay, 72 hours
T13 construct: expressed in transfected cells; host or cells: Ba/F3
Procedure: as §1, §2, §3

[15] = target: T14, EGFR InsHH (Y764_V765insHH) transformed Ba/F3 cells (Homo sapiens, UniProt P00533, INS764HH); assay: Proliferation inhibition assay, EGFR InsHH transformed Ba/F3 cells; conditions: MTS assay, 72 hours
T14 construct: expressed in transfected cells; host or cells: Ba/F3
Procedure: as §1, §2, §3

[16] = target: T15, mutant EGFR T790M/L858R transformed Ba/F3 cells (Homo sapiens, UniProt P00533, L858R/T790M); assay: Proliferation inhibition assay, EGFR T790M/L858R transformed Ba/F3 cells
T15 construct: expressed in transfected cells; host or cells: Ba/F3

[17] = target: T16, EGFR InsSVD transformed Ba/F3 cells (Homo sapiens, UniProt P00533, INS770SVD); assay: Western blot, EGFR phosphorylation, EGFR InsSVD Ba/F3 cells; conditions: indicated concentrations, 6 hours of treatment
T16 construct: expressed in transfected cells; host or cells: Ba/F3
Procedure: as §4, §5, §6, §7

[18] = target: T1, wild-type EGFR transformed Ba/F3 cells; assay: Proliferation inhibition assay, wild-type EGFR transformed Ba/F3 cells; conditions: MTS assay, 72 hours
Procedure: as §1, §2, §3

[19] = target: mutant EGFR Exon19del transformed Ba/F3 cells (Homo sapiens, UniProt P00533, cells depend on it, form not given); assay: Proliferation inhibition assay, EGFR Exon19del transformed Ba/F3 cells

Compound | pEC50 [1] | EGFR phosphorylation (Western blot, FIG. 1) [2] | pEC50 [3] | pEC50 [4] | pEC50 [5] | pEC50 [6] | pEC50 [7] | pEC50 [8] | EGFR phosphorylation (Western blot, FIG. 1) [9] | pEC50 [10] | pEC50 [11] | pEC50 [12] | pEC50 [13] | pEC50 [14] | pEC50 [15] | pEC50 [16] | EGFR phosphorylation (Western blot, FIG. 1) [17] | pEC50 [18] | pEC50 [19]
C=CC(=O)Nc1cccc(-n2c(=O)c(Oc3ccc(F)cc3F)cc3cnc(Nc4cnn(C)c4)nc32)c1 [Compound 2] | > 7.00 | decrease in EGFR phosphorylation | > 6.70 | > 7.00 | > 7.00 | > 7.00 | > 6.70 | > 7.00 | decrease in EGFR phosphorylation | > 6.70 | > 6.70 | > 7.00 | > 7.00 | > 6.70 | > 6.70 | > 7.00 | decrease in EGFR phosphorylation | > 6.70 | > 7.00
C=CC(=O)Nc1cccc(-n2c(=O)c(Oc3ccc(F)cc3F)cc3cnc(Nc4cnn(C5CCN(C)CC5)c4)nc32)c1 [Compound 3] |  |  | > 6.70 | 6.60 to 7.00 | > 7.00 |  | 6.22 to 6.70 | > 7.00 |  | > 6.70 | > 6.70 | > 7.00 | 6.60 to 7.00 | > 6.70 | 6.22 to 6.70 |  |  | > 6.70 | 

— patent US11945816B2, “Inhibitors of EGFR and/or HER2 and methods of use” (Dana-Farber Cancer Institute, Inc., priority 2017, dated 2024)
